Measurements: PubChem BioAssay (NCI)
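Interpolation was linear, between the two tested concentrations surrounding the appropriate level; five concentrations were tested over 48 hours in 96-well plates. Here, GI50 denotes the concentration required for 50% inhibition of growth. TGI: total growth inhibition.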

What was measured:
Test in all cases: NCI tumour cell line growth inhibition, 48 h
786-0 renal = tested on: 786-0 renal
A498 renal = tested on: A498 renal
A549 NSCLC = tested on: A549 NSCLC
ACHN renal = tested on: ACHN renal
BT-549 breast = tested on: BT-549 breast
CAKI-1 renal = tested on: CAKI-1 renal
CCRF-CEM leukemia = tested on: CCRF-CEM leukemia
COLO 205 colon = tested on: COLO 205 colon
DU-145 prostate = tested on: DU-145 prostate
HCC-2998 colon = tested on: HCC-2998 colon
HCT-116 colon = tested on: HCT-116 colon
HCT-15 colon = tested on: HCT-15 colon
HL-60(TB) leukemia = tested on: HL-60(TB) leukemia
HOP-62 NSCLC = tested on: HOP-62 NSCLC
HOP-92 NSCLC = tested on: HOP-92 NSCLC
HS 578T breast = tested on: HS 578T breast
HT29 colon = tested on: HT29 colon
IGROV1 ovarian = tested on: IGROV1 ovarian
K-562 leukemia = tested on: K-562 leukemia
KM12 colon = tested on: KM12 colon
LOX IMVI melanoma = tested on: LOX IMVI melanoma
M14 melanoma = tested on: M14 melanoma
MALME-3M melanoma = tested on: MALME-3M melanoma
MCF7 breast = tested on: MCF7 breast
MDA-MB-231 breast = tested on: MDA-MB-231 breast
MDA-MB-435 = tested on: MDA-MB-435
MOLT-4 leukemia = tested on: MOLT-4 leukemia
NCI-H226 lung = tested on: NCI-H226 lung
NCI-H23 lung = tested on: NCI-H23 lung

Work on C=C(C)[C@@H]1CC[C@]2(C(=O)O)CC[C@]3(C)[C@H](CC[C@@H]4[C@@]5(C)C[C@@H](CC#Cc6ccc(Br)cc6)C(=O)C(C)(C)[C@@H]5CC[C@]43C)[C@@H]12 yielded a GI50 (786-0 renal) of 5.27 µM, a TGI (786-0 renal) of 22.2 µM and a GI50 (A498 renal) of 2.42 µM. The TGI (A498 renal) was 7.29 µM, the GI50 (A549 NSCLC) was 2.8 µM and the TGI (A549 NSCLC) was over 100 µM. It also gave a GI50 (ACHN renal) of 13.5 µM, a TGI (ACHN renal) of over 100 µM and a GI50 (BT-549 breast) of 21 µM. The TGI (BT-549 breast) was 55 µM, the GI50 (CAKI-1 renal) was 15.6 µM and the TGI (CAKI-1 renal) was over 100 µM. The GI50 (CCRF-CEM leukemia) was 3.57 µM, the TGI (CCRF-CEM leukemia) was over 100 µM and the GI50 (COLO 205 colon) was 18.2 µM. The TGI (COLO 205 colon) was over 100 µM, the GI50 (DU-145 prostate) was 7.59 µM and the TGI (DU-145 prostate) was over 100 µM. For the same compound, the GI50 (HCC-2998 colon) was 36 µM, the TGI (HCC-2998 colon) was over 100 µM and the GI50 (HCT-116 colon) was 4.34 µM. The TGI (HCT-116 colon) was 83.3 µM, the GI50 (HCT-15 colon) was 25.8 µM and the TGI (HCT-15 colon) was over 100 µM. For the same compound, the GI50 (HL-60(TB) leukemia) was 22.4 µM, the TGI (HL-60(TB) leukemia) was over 100 µM and the GI50 (HOP-62 NSCLC) was 12.4 µM. It also gave a TGI (HOP-62 NSCLC) of 38.4 µM, a GI50 (HOP-92 NSCLC) of 17 µM and a TGI (HOP-92 NSCLC) of 36.4 µM. The GI50 (HS 578T breast) was 6.26 µM, the TGI (HS 578T breast) was over 100 µM and the GI50 (HT29 colon) was 4.83 µM. It also gave a TGI (HT29 colon) of over 100 µM, a GI50 (IGROV1 ovarian) of 4.07 µM and a TGI (IGROV1 ovarian) of 24.9 µM. For the same compound, the GI50 (K-562 leukemia) was 15.6 µM, the TGI (K-562 leukemia) was over 100 µM and the GI50 (KM12 colon) was 4.54 µM. The TGI (KM12 colon) was over 100 µM, the GI50 (LOX IMVI melanoma) was 5.65 µM and the TGI (LOX IMVI melanoma) was over 100 µM. For the same compound, the GI50 (M14 melanoma) was 2.67 µM, the TGI (M14 melanoma) was 12.2 µM and the GI50 (MALME-3M melanoma) was 3.48 µM. For the same compound, the TGI (MALME-3M melanoma) was 14.1 µM, the GI50 (MCF7 breast) was 4.94 µM and the TGI (MCF7 breast) was over 100 µM. For the same compound, the GI50 (MDA-MB-231 breast) was 3.67 µM, the TGI (MDA-MB-231 breast) was 14.8 µM and the GI50 (MDA-MB-435) was 4.94 µM. For the same compound, the TGI (MDA-MB-435) was over 100 µM, the GI50 (MOLT-4 leukemia) was 4.44 µM and the TGI (MOLT-4 leukemia) was over 100 µM. The GI50 (NCI-H226 lung) was 24.2 µM, the TGI (NCI-H226 lung) was over 100 µM and the GI50 (NCI-H23 lung) was 3.83 µM.
